Experiments:
GILZ gene = GILZ gene assay (qPCR, HUT78 / 786-O cells); type: cell-based; settings: for EC50: read-out: GILZ EC50
MDCKII cells = test: Apparent permeability in MDCKII cells; type: in vitro ADME; settings: 1 μM, t=3 hr, average of A to B and B to A Papp
glucocorticoid receptor = glucocorticoid receptor (Homo sapiens (Human), UniProt P04150); test: PolarScreen Glucocorticoid Receptor Competitor Assay (GR binding); settings: fluormone GS red, GR full length protein; read-out: GR Bind IC50
ZBTB16 mRNA = test: Up-regulation of ZBTB16 mRNA in primary human B cells; type: cell-based; settings: for EC50: free payload
Experimental: The carrier solution for all ADCs and naked antibodies was 50 mM histidine pH 6.0, 100 mM NaCl and 5% trehelose. To assure consistency across experiments, ADCs were thawed on ice, dispensed to small aliquots, frozen to −80° C., and those aliquots were then used for experiments with unused material discarded at the end of the day. For all in vitro studies in this report, none of the read outs were measurably different in the presence or absence of the carrier solution. Nevertheless, the final concentration of antibody carrier solution was maintained constant at 1% v/v by serially diluting antibody solution prior to addition to the assay mixture and adding carrier solution to control wells.
For the studies of ADCs bearing reduced permeability payloads frozen human CD19+ B cells purchased from Precision Biosciences (catalog #84400, donor #13108) were thawed and re-suspended in RPMI1640 plus 10% heat-inactivated FBS (cell culture medium) at 1 million cells/mL. […] B cells were bulk treated in a 96-well block and subsequently dispensed to 96 well plates (100 μL and […] cells per well) and incubated at 37° C., 5% CO2 for 18 or 40 hr. Control wells containing equal percentages of DMSO (0.1%) and ADC buffer (1%) as sample wells were included. Cells were transferred to a 96 well v-bottom plate and spun at 500×g for 5 min. Medium was removed and cells were lysed in 150 μL RLT buffer containing beta-mercaptoethanol. RNA was isolated (RNeasy 96 kit, Qiagen, Cat #74181) and cDNA was synthesized (iScript cDNA Synthesis Kit, BioRad, Cat #170-8891) according to the supplier's protocol. Quantitative PCR was performed on Applied Biosystem's 7900 HT Real-Time PCR System to measure expression of ZBTB16 (Life Technologies, Hs00957433_m1) and GAPDH (Life Technologies, Hs02758991_g1) in duplex format.
The ΔΔCt method was used to calculate fold change of expression of ZBTB16 relative to control sample, using 3 replicates per treatment condition. For free cell impermeable compounds, B cells were seeded at 100,000 cells/well in 90 μL in a 96-well flat bottom plate. Three fold serial dilutions were performed in DMSO, subsequent intermediate 10× stocks were made in tissue-culture medium and then added to the cell plate (10 μL/well). Cells were incubated at 37° C., 5% CO2 for 18 hr, harvested and processed for PCR as described above. EC50 curves were calculated using Graph Pad Prism 6 software using nonlinear fit (agonist) vs. response-variable slope (four parameters) calculation.
Potency and maximum activity of reduced permeability glucocorticoids (free payload) and the corresponding anti-CD74-drug conjugates on up-regulation of ZBTB16 mRNA levels in primary human B cells in vitro.

Sequence of glucocorticoid receptor (P04150 whole entry): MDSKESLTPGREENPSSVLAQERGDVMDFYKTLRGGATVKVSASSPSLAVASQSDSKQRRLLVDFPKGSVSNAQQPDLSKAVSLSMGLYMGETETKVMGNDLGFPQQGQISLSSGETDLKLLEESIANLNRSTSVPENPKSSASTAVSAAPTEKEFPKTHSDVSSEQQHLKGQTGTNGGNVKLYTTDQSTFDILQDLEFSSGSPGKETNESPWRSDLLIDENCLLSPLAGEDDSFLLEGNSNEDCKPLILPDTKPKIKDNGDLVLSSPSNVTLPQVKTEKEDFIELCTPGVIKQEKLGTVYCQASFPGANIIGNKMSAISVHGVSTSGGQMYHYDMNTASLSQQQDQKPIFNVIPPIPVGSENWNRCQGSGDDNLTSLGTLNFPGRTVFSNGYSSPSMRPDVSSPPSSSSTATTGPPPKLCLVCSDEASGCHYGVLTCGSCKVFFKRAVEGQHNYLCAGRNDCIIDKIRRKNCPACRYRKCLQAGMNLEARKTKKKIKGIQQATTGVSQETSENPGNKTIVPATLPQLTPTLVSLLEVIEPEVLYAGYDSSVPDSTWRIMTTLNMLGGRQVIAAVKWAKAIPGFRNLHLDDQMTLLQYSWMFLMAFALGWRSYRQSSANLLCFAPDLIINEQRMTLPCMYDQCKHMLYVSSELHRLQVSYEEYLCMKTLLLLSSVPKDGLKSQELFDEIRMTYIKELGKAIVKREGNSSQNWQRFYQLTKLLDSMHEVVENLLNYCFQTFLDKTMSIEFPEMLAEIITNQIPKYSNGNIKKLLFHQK

EC50 (ZBTB16 mRNA) [nM]	Compound	GILZ Max (GILZ gene; concentration not given) [%]	EC50 (GILZ gene) [nM]	MDCK Permeability (cm × 10−6/sec) (MDCKII cells)	IC50 (glucocorticoid receptor) [nM]	ZBTB16 mRNA Max relative to free fluticasone (ZBTB16 mRNA) [%]	EC50 (ZBTB16 mRNA; B-cell) [nM]	GILZ Max (GILZ gene; at 10 uM)	GILZ Max (GILZ gene; at 100 nM)
–	CCCC1O[C@@H]2C[C@H]3[C@@H]4CCC5=CC(=O)C=C[C@]5(C)[C@H]4[C@@H](O)C[C@]3(C)[C@]2(C(=O)CO)O1 (stereo partly drawn) [Budesonide, reference compound]	100	1	31.6	–	–	–	–	–
–	CCC(=O)O[C@]1(C(=O)SCCCCCCCCCCP(=O)(O)O)[C@H](C)C[C@H]2[C@@H]3C[C@H](F)C4=CC(=O)C=C[C@]4(C)[C@@]3(F)[C@@H](O)C[C@@]21C [Compound 3, (10-(((6S,8S,9R,10S,11S,13S,14S,16R,17R)-6,9-difluoro-11-hydroxy-10,13,16-trimethyl-3-oxo-17-(propionyloxy)-6,7,8,9,10,11,12,13,14,15,16,17-dodecahydro-3H-cyclopenta[a]phenanthrene-17-carbonyl)thio)decyl)phosphonic acid]	–	649	1.04	0.44	75	1100	71% (at	–
–	CCC(=O)O[C@]1(C(=O)SCCCCP(=O)(O)O)[C@H](C)C[C@H]2[C@@H]3C[C@H](F)C4=CC(=O)C=C[C@]4(C)[C@@]3(F)[C@@H](O)C[C@@]21C [Compound 4]	–	> 100	1.72	0.71	–	–	–	<10% (at
–	C[C@@H]1C[C@H]2[C@@H]3C[C@H](F)C4=CC(=O)C=C[C@]4(C)[C@@]3(F)[C@@H](O)C[C@]2(C)[C@@]1(O)C(=O)SCCCCP(=O)(O)O [Compound 5]	–	> 10000	1.84	160	–	–	–	24% (at
–	CCC(=O)O[C@]1(C(=O)SCCOCCOCCP(=O)(O)O)[C@H](C)C[C@H]2[C@@H]3C[C@H](F)C4=CC(=O)C=C[C@]4(C)[C@@]3(F)[C@@H](O)C[C@@]21C [Compound 6]	–	> 10000	–	0.32	–	–	40% (at	–
–	CCC(=O)O[C@]1(C(=O)SCCCCCCP(=O)(O)O)[C@H](C)C[C@H]2[C@@H]3C[C@H](F)C4=CC(=O)C=C[C@]4(C)[C@@]3(F)[C@@H](O)C[C@@]21C [Compound 7]	–	6450	2	0.45	–	–	64% (at	–
–	C[C@@H]1C[C@H]2[C@@H]3C[C@H](F)C4=CC(=O)C=C[C@]4(C)[C@@]3(F)[C@@H](O)C[C@]2(C)[C@@]1(O)C(=O)SCCCCCCCCCCP(=O)(O)O [Compound 8]	–	970	2.8	0.25	–	–	66% (at	–
–	C[C@@H]1C[C@H]2[C@@H]3C[C@H](F)C4=CC(=O)C=C[C@]4(C)[C@@]3(F)[C@@H](O)C[C@]2(C)[C@@]1(O)C(=O)SCCOCCOCCP(=O)(O)O [Compound 9]	–	> 10000	–	1.67	–	–	14.5%	–
–	C[C@@H]1C[C@H]2[C@@H]3C[C@H](F)C4=CC(=O)C=C[C@]4(C)[C@@]3(F)[C@@H](O)C[C@]2(C)[C@@]1(O)C(=O)SCCCCCCP(=O)(O)O [Compound 10]	–	> 10000	1.9	1.99	–	–	17.3%	–
–	C[C@@H]1C[C@H]2[C@@H]3C[C@H](F)C4=CC(=O)C=C[C@]4(C)[C@@]3(F)[C@@H](O)C[C@]2(C)[C@@]1(O)C(=O)SCCP(=O)(O)O [Compound 11]	–	2860	–	–	–	–	81% (at	–
–	CCC(=O)O[C@]1(C(=O)SCCP(=O)(O)O)[C@H](C)C[C@H]2[C@@H]3C[C@H](F)C4=CC(=O)C=C[C@]4(C)[C@@]3(F)[C@@H](O)C[C@@]21C [Compound 12]	–	6780	–	162	–	–	36% (at	–
–	C[C@@H]1C[C@H]2[C@@H]3C[C@H](F)C4=CC(=O)C=C[C@]4(C)[C@@]3(F)[C@@H](O)C[C@]2(C)[C@@]1(O)C(=O)SCCCP(=O)(O)O [Compound 13]	–	> 10000	–	1220	–	–	24% (at	–
–	CCC(=O)O[C@]1(C(=O)SCCCP(=O)(O)O)[C@H](C)C[C@H]2[C@@H]3C[C@H](F)C4=CC(=O)C=C[C@]4(C)[C@@]3(F)[C@@H](O)C[C@@]21C [Compound 14]	–	> 10000	–	18.1	–	–	15% (at	–
–	C[C@@H]1C[C@H]2[C@@H]3C[C@H](F)C4=CC(=O)C=C[C@]4(C)[C@@]3(F)[C@@H](O)C[C@]2(C)[C@@]1(OC(=O)CCCCCP(=O)(O)O)C(=O)SCF [Compound 19, (6-(((6S,8S,9R,10S,11S,13S,14S,16R,17R)-6,9-difluoro-17-(((fluoromethyl)thio)carbonyl)-11-hydroxy-10,13,16-trimethyl-3-oxo-6,7,8,9,10,11,12,13,14,15,16,17-dodecahydro-3H-cyclopenta[a]phenanthren-17-yl)oxy)-6-oxohexyl)phosphonic acid]	–	1290	–	0.14	–	–	88% (at	–
–	CCCC1O[C@@H]2C[C@H]3[C@@H]4CCC5=Cc6c(cnn6-c6cccc(OCCCCP(=O)(O)O)c6)C[C@]5(C)[C@H]4[C@@H](O)C[C@]3(C)[C@]2(C(=O)CO)O1 (stereo partly drawn) [Compound 28]	–	1270	1.6	4.1	–	–	101% (at	–
–	CCCC1O[C@@H]2C[C@H]3[C@@H]4CCC5=Cc6c(cnn6-c6cccc(OCCCCCCCCCP(=O)(O)O)c6)C[C@]5(C)[C@H]4[C@@H](O)C[C@]3(C)[C@]2(C(=O)CO)O1 (stereo partly drawn) [Compound 29]	–	558	–	24.2	–	–	96% (at	–
–	CCCC1O[C@@H]2C[C@H]3[C@@H]4CCC5=Cc6c(cnn6-c6ccc(OCCCCP(=O)(O)O)cc6)C[C@]5(C)[C@H]4[C@@H](O)C[C@]3(C)[C@]2(C(=O)CO)O1 (stereo partly drawn) [Compound 30]	–	3010	1.9	2.4	–	–	61% (at	–
–	CCCC1O[C@@H]2C[C@H]3[C@@H]4CCC5=Cc6c(cnn6-c6ccc(OCCCCCCP(=O)(O)O)cc6)C[C@]5(C)[C@H]4[C@@H](O)C[C@]3(C)[C@]2(C(=O)CO)O1 (stereo partly drawn) [Compound 31]	–	4180	4.1	3.9	–	–	47% (at	–
–	CCCC1O[C@@H]2C[C@H]3[C@@H]4CCC5=Cc6c(cnn6-c6ccc(OCCCCCCCCCP(=O)(O)O)cc6)C[C@]5(C)[C@H]4[C@@H](O)C[C@]3(C)[C@]2(C(=O)CO)O1 (stereo partly drawn) [Compound 32]	–	4150	–	115	–	–	86% (at	–
–	C[C@@H]1C[C@H]2[C@@H]3CCC4=CC(=O)C=C[C@]4(C)[C@@]3(F)[C@@H](O)C[C@]2(C)[C@@]1(O)C(=O)CO [Dexamethasone, reference compound]	100	3.7	–	–	–	–	–	–
0.019	CCC(=O)O[C@]1(C(=O)SCF)[C@H](C)C[C@H]2[C@@H]3C[C@H](F)C4=CC(=O)C=C[C@]4(C)[C@@]3(F)[C@@H](O)C[C@@]21C [Fluticasone Propionate, reference compound]	100	0.2	21.5	–	–	–	–	–
–	(6-(3-((3aR,4aS,4bS,11aR,11bS,12S,13aS,13bS)-12-hydroxy-13b-(2-hydroxyacetyl)-11a,13a-dimethyl-2-propyl-4,4a,5,6,11,11a,11b,12,13,13a-decahydro-[1,3]dioxolo[4″,5″:3′,4′]cyclopenta[1′,2′:5,6]naphtho[1,2-f]indazol-8 (3aH,4bH,13bH)-yl)phenoxy)hexyl)phosphonic acid [Compound 27]	–	2760	–	–	–	–	80% (at	–
